The values that follow are results of earlier work, collected in US20090053307A1, “IMMEDIATE-RELEASE T[…] FOR IMPROVED ORAL ABSORPTION OF 7-[(E)]-T-BUTY-LOXYMINOMETHYL] CAMPTOTHECIN” (SIGMA-TAU INDUSTRIE FAR[…] S.P.A., priority 2005, published 2009).

For this data set, the system named is large cell pulmonary carcinoma (not SCLC, H-460). As to conditions: H-460 tumour line; from W097/31003.

Turning to `CCC1(O)C(=O)OCc2c1cc1n(c2=O)Cc2c-1nc1ccccc1c2C#N` (stereo not shown) [CPT 83], the “activity compared with reference compound topotecan” value was “more active than topotecan”.
